Data as given in ChEMBL document CHEMBL5038625, “Application of the dual-tail approach for the design and synthesis of novel Thiopyrimidine-Benzenesulfonamide hybrids as selective carbonic anhydrase inhibitors” (Eur J Med Chem, 2022).

Legend:
[1] = test system: Malme-3M; experiment: Antiproliferative activity against human Malme-3M cells assessed as cell growth inhibition at 10 uM incubated for 24 hrs by sulforhodamine B assay; format: functional; details: read-out: GI
[2] = test system: HCC 2998; experiment: Antiproliferative activity against human HCC 2998 cells assessed as cell growth inhibition at 10 uM incubated for 24 hrs by sulforhodamine B assay; format: functional; details: read-out: GI
[3] = test system: MDA-MB-231; experiment: Cell cycle arrest in human MDA-MB-231 cells assessed as accumulation at G1 phase incubated for 48 hrs by propidium iodide staining based flow cytometric analysis (reference value: 55.63 %); format: functional
[4] = test system: SK-MEL-2; experiment: Antiproliferative activity against human SK-MEL-2 cells assessed as cell growth inhibition at 10 uM incubated for 24 hrs by sulforhodamine B assay; format: functional; details: read-out: GI
[5] = test system: MCF7; experiment: Cell cycle arrest in human MCF7 cells assessed as accumulation at sub G1 phase incubated for 48 hrs by propidium iodide staining based flow cytometric analysis (reference value: 1.09 %); format: functional
[6] = test system: OVCAR-3; experiment: Antiproliferative activity against human OVCAR-3 cells assessed as cell growth inhibition at 10 uM incubated for 24 hrs by sulforhodamine B assay; format: functional; details: read-out: GI
[7] = test system: MDA-MB-231; experiment: Induction of apoptosis in human MDA-MB-231 cells assessed as necrotic cells measured after 48 hrs by Annexin-V-FITC/propidium iodide staining based flow cytometry (reference value: 1.13%); format: functional
[8] = test system: U-251; experiment: Antiproliferative activity against human U-251 cells assessed as cell growth inhibition at 10 uM incubated for 24 hrs by sulforhodamine B assay; format: functional; details: read-out: GI
[9] = test system: NCI-H226; experiment: Antiproliferative activity against human NCI-H226 cells assessed as cell growth inhibition at 10 uM incubated for 24 hrs by sulforhodamine B assay; format: functional; details: read-out: GI
[10] = test system: NCI-H460; experiment: Antiproliferative activity against human NCI-H460 cells assessed as cell growth inhibition at 10 uM incubated for 24 hrs by sulforhodamine B assay; format: functional; details: read-out: GI
[11] = test system: MDA-MB-231; experiment: Cell cycle arrest in human MDA-MB-231 cells assessed as accumulation at G2 phase incubated for 48 hrs by propidium iodide staining based flow cytometric analysis (reference value: 20.65 %); format: functional
[12] = test system: MDA-MB-231; experiment: Induction of apoptosis in human MDA-MB-231 cells assessed as viable cells measured after 48 hrs by Annexin-V-FITC/propidium iodide staining based flow cytometry (reference value: 97.93%); format: functional
[13] = test system: MDA-MB-231; experiment: Antiproliferative activity against human MDA-MB-231 cells assessed as cell growth inhibition at 10 uM incubated for 24 hrs by sulforhodamine B assay; format: functional; details: read-out: GI
[14] = test system: RPMI-8226; experiment: Antiproliferative activity against human RPMI-8226 cells assessed as cell growth inhibition at 10 uM incubated for 24 hrs by sulforhodamine B assay; format: functional; details: read-out: GI
[15] = test system: SR; experiment: Antiproliferative activity against human SR cells assessed as cell growth inhibition at 10 uM incubated for 24 hrs by sulforhodamine B assay; format: functional; details: read-out: GI
[16] = Antiproliferative activity against human […] cells assessed as cell growth inhibition at 10 uM incubated for 24 hrs by sulforhodamine B assay; format: functional; details: read-out: GI
[17] = test system: SK-MEL-28; experiment: Antiproliferative activity against human SK-MEL-28 cells assessed as cell growth inhibition at 10 uM incubated for 24 hrs by sulforhodamine B assay; format: functional; details: read-out: GI
[18] = test system: T47D; experiment: Antiproliferative activity against human T47D cells assessed as reduction in cell viability incubated for 24 hrs by sulforhodamine B assay; format: functional, cell-based
[19] = test system: NCI/ADR-RES; experiment: Antiproliferative activity against human NCI-ADR-RES cells assessed as cell growth inhibition at 10 uM incubated for 24 hrs by sulforhodamine B assay; format: functional; details: read-out: GI
[20] = test system: MCF7; experiment: Antiproliferative activity against human MCF7 cells assessed as cell growth inhibition at 10 uM incubated for 24 hrs by sulforhodamine B assay; format: functional; details: read-out: GI
[21] = test system: SK-OV-3; experiment: Antiproliferative activity against human SK-OV-3 cells assessed as reduction in cell viability incubated for 24 hrs by sulforhodamine B assay; details: SK-OV-3, 24 h
[22] = test system: HOP-62; experiment: Antiproliferative activity against human HOP-62 cells assessed as cell growth inhibition at 10 uM incubated for 24 hrs by sulforhodamine B assay; format: functional; details: read-out: GI
[23] = test system: Hs-578T; experiment: Antiproliferative activity against human HS-578T cells assessed as cell growth inhibition at 10 uM incubated for 24 hrs by sulforhodamine B assay; format: functional; details: read-out: GI
[24] = test system: DU-145; experiment: Antiproliferative activity against human DU-145 cells assessed as cell growth inhibition at 10 uM incubated for 24 hrs by sulforhodamine B assay; format: functional; details: read-out: GI
[25] = test system: NCI-H23; experiment: Antiproliferative activity against human NCI-H23 cells assessed as cell growth inhibition at 10 uM incubated for 24 hrs by sulforhodamine B assay; format: functional; details: read-out: GI
[26] = test system: OVCAR-8; experiment: Antiproliferative activity against human OVCAR-8 cells assessed as cell growth inhibition at 10 uM incubated for 24 hrs by sulforhodamine B assay; format: functional; details: read-out: GI
[27] = test system: MCF7; experiment: Antiproliferative activity against human MCF7 cells assessed as reduction in cell viability incubated for 24 hrs by sulforhodamine B assay; format: functional, cell-based; details: MCF7, 24 h
[28] = test system: SW-620; experiment: Antiproliferative activity against human SW-620 cells assessed as reduction in cell viability incubated for 24 hrs by sulforhodamine B assay; details: SW-620, 24 h
[29] = test system: IGROV-1; experiment: Antiproliferative activity against human IGROV-1 cells assessed as cell growth inhibition at 10 uM incubated for 24 hrs by sulforhodamine B assay; format: functional; details: read-out: GI
[30] = test system: MCF7; experiment: Induction of apoptosis in human MCF cells assessed as necrotic cells measured after 48 hrs by Annexin-V-FITC/propidium iodide staining based flow cytometry (reference value: 0.94%); format: functional
[31] = test system: OVCAR-4; experiment: Antiproliferative activity against human OVCAR-4 cells assessed as cell growth inhibition at 10 uM incubated for 24 hrs by sulforhodamine B assay; format: functional; details: read-out: GI
[32] = test system: T47D; experiment: Antiproliferative activity against human T47D cells assessed as cell growth inhibition at 10 uM incubated for 24 hrs by sulforhodamine B assay; format: functional; details: read-out: GI
[33] = test system: HCT-116; experiment: Antiproliferative activity against human HCT-116 cells assessed as reduction in cell viability incubated for 24 hrs by sulforhodamine B assay; details: HCT-116, 24 h
[34] = test system: SW-620; experiment: Antiproliferative activity against human SW-620 cells assessed as cell growth inhibition at 10 uM incubated for 24 hrs by sulforhodamine B assay; format: functional; details: read-out: GI
[35] = test system: UACC-62; experiment: Antiproliferative activity against human UACC-62 cells assessed as cell growth inhibition at 10 uM incubated for 24 hrs by sulforhodamine B assay; format: functional; details: read-out: GI
[36] = test system: A498; experiment: Antiproliferative activity against human A498 cells assessed as cell growth inhibition at 10 uM incubated for 24 hrs by sulforhodamine B assay; format: functional; details: read-out: GI
[37] = test system: ACHN; experiment: Antiproliferative activity against human ACHN cells assessed as cell growth inhibition at 10 uM incubated for 24 hrs by sulforhodamine B assay; format: functional; details: read-out: GI
[38] = test system: MCF7; experiment: Induction of apoptosis in human MCF cells assessed as late apoptotic cells measured after 48 hrs by Annexin-V-FITC/propidium iodide staining based flow cytometry (reference value: 0.82%); format: functional
[39] = test system: SN12C; experiment: Antiproliferative activity against human SN12C cells assessed as cell growth inhibition at 10 uM incubated for 24 hrs by sulforhodamine B assay; format: functional; details: read-out: GI
[40] = test system: COLO 205; experiment: Antiproliferative activity against human COLA 205 cells assessed as reduction in cell viability incubated for 24 hrs by sulforhodamine B assay; details: COLO 205, 24 h

Which results are given for COc1ccc(OC)c(-c2nc(SCC(=O)c3ccc(Br)cc3)nc(Nc3ccc(S(N)(=O)=O)cc3)c2C#N)c1?
inhibition of growth at 10 µM [1]: 49.8%; inhibition of growth at 10 µM [2]: 29.1%; Activity [3]: 39.7%; inhibition of growth at 10 µM [4]: 69.6%; Activity [5]: 35.5%; inhibition of growth at 10 µM [6]: 49.4%; Activity [7]: 7.18%; inhibition of growth at 10 µM [8]: 62.4%; inhibition of growth at 10 µM [9]: 50%; inhibition of growth at 10 µM [10]: 79.2%; Activity [11]: 30.07%; Activity [12]: 87.15%; inhibition of growth at 10 µM [13]: 37%; inhibition of growth at 10 µM [14]: 48.8%; inhibition of growth at 10 µM [15]: 86.1%; inhibition of growth at 10 µM [16]: 18.4%; inhibition of growth at 10 µM [17]: 42.3%; IC50 [18]: 2.4 µM; inhibition of growth at 10 µM [19]: 25.6%; inhibition of growth at 10 µM [20]: 71.1%; IC50 [21]: 29.9 µM; inhibition of growth at 10 µM [22]: 51.6%; inhibition of growth at 10 µM [23]: 86.6%; inhibition of growth at 10 µM [24]: 44.9%; inhibition of growth at 10 µM [25]: 41.6%; inhibition of growth at 10 µM [26]: 37.2%; IC50 [27]: 2.5 µM; IC50 [28]: 4.5 µM; inhibition of growth at 10 µM [29]: 45.3%; Activity [30]: 7.15%; inhibition of growth at 10 µM [31]: 42.6%; inhibition of growth at 10 µM [32]: 28.9%; IC50 [33]: 2.5 µM; inhibition of growth at 10 µM [34]: 64%; inhibition of growth at 10 µM [35]: 57.3%; inhibition of growth at 10 µM [36]: 73.6%; inhibition of growth at 10 µM [37]: 44.1%; Activity [38]: 3.96%; inhibition of growth at 10 µM [39]: 50.9%; IC50 [40]: 13.3 µM
